Test results from ChEMBL document CHEMBL6083284, “Identification of TAK-756, A Potent TAK1 Inhibitor for the Treatment of Osteoarthritis through Intra-Articular Administration” (J Med Chem, 2024).
≈ marks a conversion by molar mass, not a printed value.

Tests used:
[1] = Solubility in simulated synovial fluid; format: physicochemical
[2] = Lipophilicity, logD of compound; format: physicochemical; settings: octanol/water
[3] = Inhibition of IL-6 production in human SW982 cells by Nano-Glo HiBit assay; settings: SW982, read-out: pEC50 (converted)
[4] = Partition coefficient, logP of compound in octanol/water; format: physicochemical
[5] = Inhibition of MMP3 production in human C20/A4 cells by Nano-Glo HiBit assay; settings: C20/A4, read-out: pEC50 (converted)
[6] = Thermodynamic solubility in simulated synovial fluid containing PBS/BSA incubated for 20 hrs by HPLC-HRMS analysis; format: physicochemical; settings: read-out: Therm_solubility
[7] = Drug concentration in synovial fluid of Sprague-Dawley rat at 250 ug, IART measured for 168 hrs by LC-MS/MS analysis; format: ADME, tissue-based; settings: for concentration at 168 h: Sprague-Dawley, synovial fluid, 250 ug, read-out: Ct
[8] = Free drug concentration in synovial fluid of Sprague-Dawley rat at 250 ug, IART measured for 168 hrs by LC-MS/MS analysis; format: ADME, tissue-based; settings: in vivo, other, dose 250 µg
[9] = Terminal half life in plasma of Sprague-Dawley rat at 250 ug, IART measured for 168 hrs by LC-MS/MS analysis; format: ADME, cell-free; settings: dose 250 µg, read-out: beta t1/2 (converted)
[10] = Protein binding in bovine synovial fluid assessed as unbound fraction at 5 uM incubated for 4 hrs by rapid equilibrium dialysis; format: ADME, tissue-based, Bos taurus; settings: cattle
[11] = system: Rattus norvegicus; assay: Downregulation of Il6 mRNA level in meniscus of Lewis/Or1Rj naive rat model of joint inflammation administered intra-articularly pretreated with compound 72 hrs prior to LPS/MSU treatment measured after 4 hrs by qPCR analysis; format: functional, organism-based; settings: dose <= 240.0 µg, route iart, time 76.0 hrs
[12] = molecular target: TRAF2 and NCK-interacting protein kinase (Homo sapiens) (UniProt Q9UKE5); assay: Inhibition of TNIK (unknown origin) at 1 uM relative to control
[13] = molecular target: Misshapen-like kinase 1 (Homo sapiens) (UniProt Q8N4C8); assay: Inhibition of MINK1 (unknown origin) at 1 uM relative to control
[14] = Drug uptake in synovial fluid of Lewis/Or1Rj naive rat model of joint inflammation administered intra-articularly pretreated with compound 72 hrs prior to LPS/MSU treatment measured after 4 hrs; format: ADME; settings: in vivo, other, 76 h, route iart, dose < 240 µg
[15] = molecular target: T1, Interleukin-1 receptor-associated kinase 4 (Homo sapiens) (UniProt Q9NWZ3); assay: Inhibition of IRAK4 (unknown origin) at 1 uM relative to control
T1 sequence (whole entry): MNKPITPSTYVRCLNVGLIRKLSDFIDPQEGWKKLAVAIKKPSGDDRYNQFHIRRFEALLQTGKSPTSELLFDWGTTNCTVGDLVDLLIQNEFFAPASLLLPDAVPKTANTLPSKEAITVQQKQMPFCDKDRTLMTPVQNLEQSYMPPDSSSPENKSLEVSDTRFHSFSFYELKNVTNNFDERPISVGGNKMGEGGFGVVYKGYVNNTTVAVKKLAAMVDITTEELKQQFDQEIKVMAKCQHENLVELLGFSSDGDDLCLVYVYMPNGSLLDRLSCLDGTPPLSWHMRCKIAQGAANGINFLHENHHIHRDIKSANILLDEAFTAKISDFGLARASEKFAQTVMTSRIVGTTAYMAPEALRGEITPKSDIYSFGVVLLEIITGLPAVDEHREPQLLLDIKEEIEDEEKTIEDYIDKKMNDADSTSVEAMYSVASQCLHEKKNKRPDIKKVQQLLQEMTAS

[16] = molecular target: Mitogen-activated protein kinase kinase kinase kinase 4 (Homo sapiens) (UniProt O95819); assay: Inhibition of MAP4K4 (unknown origin) at 1 uM relative to control
[17] = system: Mitogen-activated protein kinase kinase kinase 7 (TAK1, Rattus norvegicus); assay: In vivo inhibition of TAK1 in Lewis/Or1Rj naive rat model of joint inflammation assessed as reduction in CXCL1 level administered intra-articularly pretreated with compound 72 hrs prior to LPS/MSU treatment measured after 4 hrs; settings: dose <= 240.0 µg, route iart, time 76.0 hrs
[18] = system: Mitogen-activated protein kinase kinase kinase 7 (TAK1, Rattus norvegicus); assay: In vivo inhibition of TAK1 in Lewis/Or1Rj naive rat model of joint inflammation assessed as reduction in CXCL1 level at 15 ug, IART pretreated with compound 72 hrs prior to LPS/MSU treatment measured after 4 hrs relative to control; settings: dose 15.0 µg, time 76.0 hrs
[19] = Unbound drug concentration in Lewis/Or1Rj naive rat model of joint inflammation at >60 ug, IART pretreated with compound 72 hrs prior to LPS/MSU treatment measured after 4 hrs; format: ADME; settings: in vivo, other, 76 h, dose > 60 µg
[20] = molecular target: Receptor-type tyrosine-protein kinase FLT3 (Homo sapiens) (UniProt P36888); assay: Inhibition of FLT3 (unknown origin) at 1 uM relative to control
[21] = Drug concentration in Lewis/Or1Rj naive rat model of joint inflammation at >60 ug, IART pretreated with compound 72 hrs prior to LPS/MSU treatment measured after 4 hrs; format: ADME; settings: in vivo, dose > 60 µg, read-out: Ct
[22] = organism: Rattus norvegicus; assay: Effect on Mmp3 mRNA level in meniscus of Lewis/Or1Rj naive rat model of joint inflammation >=30 ug, IART pretreated with compound 72 hrs prior to LPS/MSU treatment measured after 4 hrs by qPCR analysis; format: functional, organism-based; settings: dose >= 30.0 µg, time 76.0 hrs
[23] = molecular target: Interleukin-1 receptor-associated kinase 1 (Homo sapiens) (UniProt P51617); assay: Inhibition of IRAK1 (unknown origin) at 1 uM relative to control
[24] = molecular target: Dual specificity protein kinase CLK4 (Homo sapiens) (UniProt Q9HAZ1); assay: Inhibition of CLK4 (unknown origin) at 1 uM relative to control
[25] = system: Rattus norvegicus; assay: Downregulation of Cxcl1 mRNA level in meniscus of Lewis/Or1Rj naive rat model of joint inflammation administered intra-articularly pretreated with compound 72 hrs prior to LPS/MSU treatment measured after 4 hrs by qPCR analysis; format: functional, organism-based; settings: dose <= 240.0 µg, route iart, time 76.0 hrs
[26] = Drug concentration in tibia of Sprague-Dawley rat assessed as accumulation in tibial plateau at 250 ug, IART measured for 168 hrs by LC-MS/MS analysis; format: ADME, tissue-based; settings: dose 250 µg, read-out: Drug uptake
[27] = Drug concentration in tibia of Sprague-Dawley rat assessed as accumulation in synovial membrane of tibial plateau at 250 ug, IART measured for 168 hrs by LC-MS/MS analysis; format: ADME; settings: dose 250 µg, read-out: Ct
[28] = Drug concentration in plasma of Sprague-Dawley rat at 50 ug, IART measured after 24 hrs by LC-MS/MS analysis; format: ADME, cell-free; settings: dose 50 µg
[29] = Drug uptake in synovial fluid of Sprague-Dawley rat at 50 ug, IART measured after 72 hrs by LC-MS/MS analysis; format: ADME, tissue-based; settings: in vivo, other, dose 50 µg
[30] = Toxicity in Sprague-Dawley rat assessed as drug tolerance at 50 ug, IART measured for 168 hrs by LC-MS/MS analysis; settings: in vivo, other, dose 50 µg
[31] = Drug uptake in tibia of Sprague-Dawley rat assessed as accumulation at cartilage tissue of tibial plateau at 50 ug, IART measured for 168 hrs by LC-MS/MS analysis; format: ADME, tissue-based; settings: in vivo, other, dose 50 µg
[32] = Drug concentration in plasma of Sprague-Dawley rat at 50 ug, IART measured for 168 hrs by LC-MS/MS analysis; format: ADME, cell-free; settings: dose 50 µg
[33] = Drug uptake in tibia of Sprague-Dawley rat assessed as accumulation at synovial membrane of tibial plateau at 50 ug, IART measured for 168 hrs by LC-MS/MS analysis; format: ADME, tissue-based; settings: in vivo, other, dose 50 µg

Chain of Receptor-type tyrosine-protein kinase FLT3 (Homo sapiens) (P36888 whole entry): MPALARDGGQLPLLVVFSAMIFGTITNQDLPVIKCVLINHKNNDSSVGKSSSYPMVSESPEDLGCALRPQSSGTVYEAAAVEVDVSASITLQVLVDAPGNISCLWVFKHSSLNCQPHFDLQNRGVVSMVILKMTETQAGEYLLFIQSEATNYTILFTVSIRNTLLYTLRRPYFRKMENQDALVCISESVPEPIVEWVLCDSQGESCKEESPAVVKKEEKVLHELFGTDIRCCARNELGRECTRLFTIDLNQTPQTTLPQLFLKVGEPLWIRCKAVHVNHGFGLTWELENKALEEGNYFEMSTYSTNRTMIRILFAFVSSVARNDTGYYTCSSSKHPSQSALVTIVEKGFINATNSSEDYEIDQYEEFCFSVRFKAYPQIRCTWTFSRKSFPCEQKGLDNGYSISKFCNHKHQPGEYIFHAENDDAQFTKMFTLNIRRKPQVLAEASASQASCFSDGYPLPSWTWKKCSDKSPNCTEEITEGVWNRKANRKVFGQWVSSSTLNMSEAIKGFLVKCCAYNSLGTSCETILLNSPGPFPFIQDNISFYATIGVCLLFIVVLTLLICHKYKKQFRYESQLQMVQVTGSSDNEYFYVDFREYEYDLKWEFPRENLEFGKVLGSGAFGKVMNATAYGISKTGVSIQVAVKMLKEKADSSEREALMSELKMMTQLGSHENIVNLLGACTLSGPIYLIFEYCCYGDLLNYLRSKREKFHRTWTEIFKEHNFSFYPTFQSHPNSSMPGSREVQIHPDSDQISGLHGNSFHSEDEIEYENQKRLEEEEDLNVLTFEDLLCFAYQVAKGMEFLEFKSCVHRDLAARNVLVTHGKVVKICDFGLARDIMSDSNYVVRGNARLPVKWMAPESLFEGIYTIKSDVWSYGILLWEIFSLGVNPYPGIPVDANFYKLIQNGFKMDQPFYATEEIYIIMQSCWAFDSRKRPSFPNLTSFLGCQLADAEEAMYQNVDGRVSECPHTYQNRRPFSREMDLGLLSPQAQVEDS
Chain of Dual specificity protein kinase CLK4 (Homo sapiens) (Q9HAZ1 whole entry, looked up): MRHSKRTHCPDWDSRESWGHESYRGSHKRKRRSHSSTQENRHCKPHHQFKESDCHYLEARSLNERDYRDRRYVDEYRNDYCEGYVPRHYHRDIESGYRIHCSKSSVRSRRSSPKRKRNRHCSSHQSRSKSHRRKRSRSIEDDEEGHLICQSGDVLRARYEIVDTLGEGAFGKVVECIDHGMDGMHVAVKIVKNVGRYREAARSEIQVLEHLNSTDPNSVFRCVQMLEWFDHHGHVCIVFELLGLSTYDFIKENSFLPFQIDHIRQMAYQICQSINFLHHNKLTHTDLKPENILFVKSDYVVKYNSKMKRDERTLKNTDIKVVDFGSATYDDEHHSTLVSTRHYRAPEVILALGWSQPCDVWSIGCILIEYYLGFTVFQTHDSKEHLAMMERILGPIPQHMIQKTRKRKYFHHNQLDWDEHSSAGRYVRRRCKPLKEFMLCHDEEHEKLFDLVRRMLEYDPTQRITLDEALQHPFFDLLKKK
Chain of Misshapen-like kinase 1 (Homo sapiens) (Q8N4C8 whole entry, looked up): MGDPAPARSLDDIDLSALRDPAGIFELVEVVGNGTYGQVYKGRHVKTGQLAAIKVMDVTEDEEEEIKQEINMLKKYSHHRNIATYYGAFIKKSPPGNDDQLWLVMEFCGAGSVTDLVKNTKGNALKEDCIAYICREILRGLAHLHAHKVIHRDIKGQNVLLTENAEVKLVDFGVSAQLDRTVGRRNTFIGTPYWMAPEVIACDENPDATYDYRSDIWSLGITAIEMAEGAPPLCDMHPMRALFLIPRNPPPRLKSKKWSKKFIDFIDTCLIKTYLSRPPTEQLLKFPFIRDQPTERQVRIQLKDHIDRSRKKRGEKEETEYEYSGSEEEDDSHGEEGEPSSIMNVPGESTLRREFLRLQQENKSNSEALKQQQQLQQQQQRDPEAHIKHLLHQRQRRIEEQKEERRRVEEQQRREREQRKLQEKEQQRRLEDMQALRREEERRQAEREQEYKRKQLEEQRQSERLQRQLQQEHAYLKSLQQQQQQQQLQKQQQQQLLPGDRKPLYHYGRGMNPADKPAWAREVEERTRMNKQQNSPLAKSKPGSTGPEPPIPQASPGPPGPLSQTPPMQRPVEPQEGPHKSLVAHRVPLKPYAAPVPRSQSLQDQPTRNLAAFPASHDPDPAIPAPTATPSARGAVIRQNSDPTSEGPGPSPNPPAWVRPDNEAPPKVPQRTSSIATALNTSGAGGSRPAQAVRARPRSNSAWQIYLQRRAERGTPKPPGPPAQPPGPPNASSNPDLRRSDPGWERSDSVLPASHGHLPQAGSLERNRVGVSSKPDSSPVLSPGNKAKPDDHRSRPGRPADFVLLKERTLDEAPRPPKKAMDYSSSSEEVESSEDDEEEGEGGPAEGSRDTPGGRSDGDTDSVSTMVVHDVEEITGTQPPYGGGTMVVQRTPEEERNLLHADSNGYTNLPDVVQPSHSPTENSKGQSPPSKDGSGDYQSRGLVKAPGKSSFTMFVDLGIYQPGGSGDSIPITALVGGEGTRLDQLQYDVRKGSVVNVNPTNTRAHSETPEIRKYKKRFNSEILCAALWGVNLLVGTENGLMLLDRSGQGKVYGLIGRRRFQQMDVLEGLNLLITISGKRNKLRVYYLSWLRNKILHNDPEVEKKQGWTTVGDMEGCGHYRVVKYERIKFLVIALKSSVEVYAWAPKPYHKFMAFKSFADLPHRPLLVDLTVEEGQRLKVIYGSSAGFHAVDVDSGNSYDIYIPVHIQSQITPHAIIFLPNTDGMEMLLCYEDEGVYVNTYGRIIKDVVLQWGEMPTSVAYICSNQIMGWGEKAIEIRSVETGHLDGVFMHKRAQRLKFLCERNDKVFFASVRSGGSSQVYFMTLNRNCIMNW
Chain of Interleukin-1 receptor-associated kinase 1 (Homo sapiens) (P51617 whole entry, looked up): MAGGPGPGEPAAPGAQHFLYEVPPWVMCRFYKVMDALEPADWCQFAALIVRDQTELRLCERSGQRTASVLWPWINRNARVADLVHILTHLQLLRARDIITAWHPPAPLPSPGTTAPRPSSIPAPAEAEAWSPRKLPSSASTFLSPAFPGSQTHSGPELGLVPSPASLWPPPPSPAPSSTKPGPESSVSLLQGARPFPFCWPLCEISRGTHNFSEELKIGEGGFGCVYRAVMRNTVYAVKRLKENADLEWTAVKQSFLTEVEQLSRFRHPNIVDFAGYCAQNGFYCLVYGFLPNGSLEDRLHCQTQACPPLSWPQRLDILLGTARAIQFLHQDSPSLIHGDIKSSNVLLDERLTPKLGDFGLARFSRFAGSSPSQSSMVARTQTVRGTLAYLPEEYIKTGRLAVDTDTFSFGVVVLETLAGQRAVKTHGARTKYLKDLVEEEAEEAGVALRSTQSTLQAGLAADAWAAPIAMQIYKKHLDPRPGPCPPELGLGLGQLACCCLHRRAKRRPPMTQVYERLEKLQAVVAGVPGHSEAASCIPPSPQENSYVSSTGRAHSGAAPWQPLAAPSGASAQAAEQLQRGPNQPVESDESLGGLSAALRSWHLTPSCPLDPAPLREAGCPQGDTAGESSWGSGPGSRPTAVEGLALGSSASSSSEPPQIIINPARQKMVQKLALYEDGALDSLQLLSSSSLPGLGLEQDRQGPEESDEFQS
Chain of TRAF2 and NCK-interacting protein kinase (Homo sapiens) (Q9UKE5 whole entry, looked up): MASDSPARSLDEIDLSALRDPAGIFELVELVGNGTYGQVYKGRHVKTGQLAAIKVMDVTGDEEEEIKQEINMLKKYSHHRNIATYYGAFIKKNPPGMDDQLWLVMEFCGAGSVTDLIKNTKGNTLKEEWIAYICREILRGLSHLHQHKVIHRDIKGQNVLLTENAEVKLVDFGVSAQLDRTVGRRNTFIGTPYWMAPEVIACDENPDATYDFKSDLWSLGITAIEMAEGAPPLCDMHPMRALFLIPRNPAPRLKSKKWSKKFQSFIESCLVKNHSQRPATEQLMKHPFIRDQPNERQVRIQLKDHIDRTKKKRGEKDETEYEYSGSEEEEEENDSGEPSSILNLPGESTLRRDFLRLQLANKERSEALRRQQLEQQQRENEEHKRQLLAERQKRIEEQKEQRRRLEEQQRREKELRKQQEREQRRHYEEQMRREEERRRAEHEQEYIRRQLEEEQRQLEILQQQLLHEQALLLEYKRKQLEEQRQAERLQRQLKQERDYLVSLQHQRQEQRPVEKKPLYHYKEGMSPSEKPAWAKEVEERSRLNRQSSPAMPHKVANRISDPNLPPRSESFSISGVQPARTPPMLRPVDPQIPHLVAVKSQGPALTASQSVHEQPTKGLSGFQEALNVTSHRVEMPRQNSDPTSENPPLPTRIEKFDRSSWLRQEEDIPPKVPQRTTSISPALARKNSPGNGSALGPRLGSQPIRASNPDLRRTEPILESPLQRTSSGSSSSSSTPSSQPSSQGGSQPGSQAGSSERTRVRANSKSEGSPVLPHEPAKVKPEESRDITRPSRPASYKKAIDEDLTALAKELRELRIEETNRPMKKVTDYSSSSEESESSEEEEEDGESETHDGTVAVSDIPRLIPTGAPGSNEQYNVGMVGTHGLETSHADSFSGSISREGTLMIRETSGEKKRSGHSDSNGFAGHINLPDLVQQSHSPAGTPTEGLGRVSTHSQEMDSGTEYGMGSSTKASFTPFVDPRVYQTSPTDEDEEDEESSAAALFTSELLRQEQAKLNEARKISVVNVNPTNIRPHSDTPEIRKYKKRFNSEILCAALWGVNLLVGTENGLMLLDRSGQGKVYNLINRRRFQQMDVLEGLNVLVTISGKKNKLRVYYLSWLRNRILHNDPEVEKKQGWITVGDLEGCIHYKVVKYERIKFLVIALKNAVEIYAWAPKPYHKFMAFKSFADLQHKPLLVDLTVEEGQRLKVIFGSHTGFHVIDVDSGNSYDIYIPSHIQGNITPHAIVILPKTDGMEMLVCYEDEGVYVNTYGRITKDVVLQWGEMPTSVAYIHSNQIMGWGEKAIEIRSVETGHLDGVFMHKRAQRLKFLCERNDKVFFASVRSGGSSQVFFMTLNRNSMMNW

SMILES | EC50 [3] [nM] | logP [4] | EC50 [5] [nM] | solubility thermodynamic at 20 h [6] [µM] | concentration at 168 h [7] [nM] | Drug uptake(free) [8] | half-life [9] [h] | fraction unbound at 4 h, 5 µM [10] | other results
CC(C)CC(=O)Nc1cncc(-c2ccc3[nH]nc(-c4nc5c(-c6cccc(F)c6)cncc5[nH]4)c3c2)c1 [LORECIVIVINT] | – | – | – | – | – | – | – | – | solubility [1]: 0.8 µM (≈ 0.404 µg/mL); logD [2]: > 4.7
COc1ccc(-c2cc(-c3cccc(C(N)=O)n3)no2)c(O[C@H]2CC[C@@H](O)CC2)n1 | 1000 | 4.5 | 126 | – | – | – | – | – | –
CNC(=O)CNc1ccc(-c2cc(-c3cccc(C(N)=O)n3)no2)c(O[C@H]2CC[C@@H](O)CC2)n1 | 631 | 2.8 | 50.1 | 2.2 (≈ 1.03 µg/mL) | – | – | – | – | –
CN(C)C(=O)c1ccc(-c2cc(-c3cccc(C(N)=O)c3)no2)c(O[C@H]2CC[C@@H](O)CC2)c1 | 126 | 2.8 | 158 | 10 (≈ 4.5 µg/mL) | – | – | – | – | –
CNc1ccc(-c2cc(-c3cccc(C(N)=O)n3)no2)c(O[C@H]2CC[C@@H](O)CC2)n1 | 126 | > 4.7 | 63.1 | 1 (≈ 0.409 µg/mL) | 1840 | 35 nM | 168 | 0.019 | –
CN(C)C(=O)CNc1ccc(-c2cc(-c3cccc(C(N)=O)n3)no2)c(O[C@H]2CC[C@@H](O)CC2)n1 | 100 | 3 | 126 | 2 (≈ 0.961 µg/mL) | 1210 | 326 nM | 80 | 0.27 | –
CC(=O)Nc1ccc(-c2cc(-c3cccc(C(N)=O)n3)no2)c(O[C@H]2CC[C@@H](O)CC2)n1 | 1000 | 4 | 501 | 0.2 (≈ 0.0875 µg/mL) | – | Below_limit_of_detection | 11 | – | Ct ([7]; in vivo, other, 168 h, dose 250 µg): Below_limit_of_detection
CN(C)C(=O)c1ccc(-c2cc(-c3cccc(C(N)=O)c3)no2)c(O[C@H]2CC[C@@H](O)CC2)n1 | 251 | 2.8 | 200 | 12 (≈ 5.41 µg/mL) | – | – | – | – | –
NC(=O)c1cccc(-c2cc(-c3ccc(N)nc3O[C@H]3CC[C@@H](O)CC3)on2)n1 | 158 | 3.6 | 63.1 | 15 (≈ 5.93 µg/mL) | 120 | 11 nM | 21 | 0.088 | –
CN1Cc2cc(-c3cc(-c4cccc(C(N)=O)c4)no3)c(O[C@H]3CC[C@@H](O)CC3)cc2C1=O | 79.4 | 3.3 | 79.4 | 1.8 (≈ 0.805 µg/mL) | 9810 | 1550 nM | 93 | 0.158 | Activity [11]: Dose-dependent-effect; inhibition [12]: 86%; inhibition [13]: 88%; Drug uptake [14]: Dose-dependent-effect; inhibition [15]: 77%; inhibition [16]: 100%; inhibition [17]: Dose-dependent-effect; inhibition [18]: > 90%; Drug uptake(free) [19]: 100 nM; inhibition [20]: 97%; concentration at 76 h [21]: ≥ 1000 nM; Activity [22]: Not active; Less Profound Effect Observed; inhibition [23]: 15%; inhibition [24]: 88%; Activity [25]: Dose-dependent-effect; concentration at 168 h [26]: 42000 nM; concentration at 168 h [27]: 631000 nM
NC(=O)c1cccc(-c2cc(-c3cccnc3O[C@H]3CC[C@@H](O)CC3)on2)n1 | 251 | 3.8 | 158 | 4.5 (≈ 1.71 µg/mL) | 14 | < 1 nM | 7 | 0.056 | concentration at 24 h [28]: 1 nM; Drug uptake [29]: Active; Activity [30]: Non-toxic; Drug uptake [31]: Active; concentration at 168 h [32]: < 100 nM; Drug uptake [33]: Active
NC(=O)c1cccc(-c2cc(-c3ccc(NCC(=O)N4CCS(=O)(=O)CC4)nc3O[C@H]3CC[C@@H](O)CC3)on2)n1 | 631 | 2.4 | 251 | 0.13 (≈ 0.0742 µg/mL) | 489 | 221 nM | – | 0.452 | –
CN(C)C(=O)c1ccc(-c2cc(-c3cccc(C(N)=O)n3)no2)c(O[C@H]2CC[C@@H](O)CC2)n1 | 79.4 | 3 | 126 | 2.9 (≈ 1.31 µg/mL) | – | – | – | – | –
